Data on 2 molecules can be found in patent US20070191449A1, “Use of Benzo-Heteroaryl Sulfamide Derivatives for the Treatment of Depression” (priority 2006, published 2007).

Molecules are shown by their SMILES.

For one data set, the system named is submissive rats. Kind of data set: Dominant-Submissive Competition: Reduction of Submissive Behavior Model (RSBM). The format is in vivo, Male Sprague Dawley rats. On the procedure:
Dominance and submissiveness, defined in a competition test and measured as the relative success of two food-restricted rats to gain access to a feeder, form a behavioral paradigm—the Dominant Submissive Relationship (DSR). This paradigm results in two models which are predictive of ability of test compounds (drugs) to treat mood disorders.
Test compounds are evaluated for either their ability to inhibit the dominant behavior of rats taking food at the expense of an opponent (reduction of dominant behavior model or RDBM) and thus their potential as treatments for mania; or for their ability to increase the competitive behavior of submissive rats losing such encounters (reduction of submissive behavior model or RSBM) and thus their potential as treatments for depression; (Malatynska, E., and Knapp, R. J., Neuroscience and Biobehavioral Review, 29 (2005) 715-737). […]
The basic testing apparatus consisted of two chambers connected with a tunnel only large enough to allow one rat to pass through at a time. […] During the five-minute daily sessions, time spent in the feeder zone by each rat was recorded by the video tracking software and saved into a text file.
The test began with a random assignment of rats into pairs. […] The time spent in the feeder zone by each animal was recorded. […]

A short description of data set [1]: Drug concentration in terminal plasma and brain of RSBM rats (LC-MS-MS). The note with it: submissive rats treated with increasing doses (6, 30, 60 mg/kg p.o. BID). The format is in vivo, Male Sprague Dawley rats. The text has this:
Rats were housed four per cage. Access to food was restricted to one hour per day after testing on Monday through Thursday. After testing on Friday, rats had free access to food until being fasted again on Sunday. At no time were the rats deprived of water. The food deprivation periods used had little effect on weight gain as the average weight of rats was about 300 g at the end of the study. At the conclusion of experiment rats were sacrificed by decapitation, the trunk blood and brains were collected for in vitro experiments and drug concentration measurements.
Terminal blood samples (0.5-1.0 mL) were collected post experiment into heparinized tubes. Blood samples were centrifuged for cell removal, and 200 μL of plasma supernatant was then transferred to a clean vial, placed on dry ice, and subsequently stored in a −80° C. freezer prior to analysis. Two hundred microliters of acetonitrile containing internal standard was added to 100 μL of plasma or brain tissue to precipitate proteins and/or tissue residues. Samples were centrifuged and supernatant removed for analysis by liquid chromatography-triple quadruple mass spectrometry (LC-MS-MS). […] Calibration standards were prepared in the range of 0.01 to 10 μM for quantitation. […]

A further data set deals with Male NMRI mice. Kind of data set: Mouse Tail Suspension In Vivo Assay. The settings on record: for Immobilization Time (sec); (mean ± SEM): single dose 30 min prior to tail suspension. On the procedure:
The tail suspension test (TST) is an acute test of anti-depressant activity.
Male NMRI mice (25-30 g; n=13-15 mice per dose) were given a single dose of vehicle (aqueous solution of 1 equivalent tartaric acid+0.45% NaCl+10% cyclodextrin, i.p.), imipramine (20 mg/kg, i.p. in an aqueous solution of 0.9% NaCl) or Compound #1 (at 5, 10, 20, 40 or 80 mg/kg, i.p.) 30 min prior to tail suspension. In this test, the mice were submitted to an unpleasant and inescapable situation (hanging by the tail) for 6 min. Once suspended, motor activity diminished rapidly and the mice became immobile. A compound was considered active as an antidepressant in this model, when there was a reduction in immobility time. Viewpoint video-tracking software was utilized to record immobility time.
Therefore, a compound which is not active in this model may nonetheless be active as an antidepressant.

The next data set deals with Male C57BL/6 mice. The data set can be described thus: Mouse Forced Swim Test. The settings on record: not statistically significant (p=0.19). Format: in vivo. On the procedure: The forced swim test (FST) is an acute test of anti-depressant activity. Note that in this test, antidepressant-like compounds such as tricyclics, MAO inhibitors, SSRIs and others show activity, although the level of measured activity can vary with strain differences.
Male C57BL/6 mice (˜25 g; n=10 mice per dose) were given a single dose of vehicle (an aqueous solution of 1 equivalent tartaric acid+0.45% NaCl+10% cyclodextrin, s.c.), Compound #1 (at 5, 10, 20, 40 or 80 mg/kg, s.c.) or imipramine (10 mg/kg, i.p. in an aqueous solution of 0.9% NaCl) 30 min prior to entrance into the swim chamber. In this test, mice were placed in a water-filled cylinder in which they were unable to escape or touch the bottom of the chamber for 6 min. Once immersed in water, motor activity diminished rapidly and the mice became immobile. Viewpoint video-tracking software was utilized to record immobility time. Other common behaviors such as swimming and climbing activity were not measured in this study.

In the case of `NS(=O)(=O)NCc1csc2ccccc12` [Compound #1, N-(benzorblthien-3-vimethyl)-sulfamide], the “statistical significance of the reduction of submissive behavior” value in the data set on submissive rats (after 17 days of treatment with 60 mg/kg, p<0.01) is listed as “statistically significant”. The “reduction of submissive behavior” value in the data set on submissive rats (submissive rats treated p.o. BID at 6, 30 or 60 mg/kg) is given as “reduced submissive behavior in a dose-dependent manner”. Besides, the “exposure in plasma and brain” value in data set [1] was “linear increase in exposure both in plasma and brain”. Moreover, the “Immobilization Time (sec); (mean ± SEM)” value with Male NMRI mice (5 mpk i.p.) is 66.1 ± 10.1 s; with Male NMRI mice (10 mpk i.p.), 96.4 ± 12.4 s; with Male NMRI mice (20 mpk i.p.), 110.1 ± 15.8 s; in the data set with Male NMRI mice (40 mpk i.p.) it was 100.5 ± 13.9 s; in the data set with Male NMRI mice (80 mpk i.p., increase resembled sedation (p=0.003)), 160 s; with Male NMRI mice (80 mpk i.p., increase resembled sedation (p=0.003), listed as #1) it was 160.4 ± 10.7 s.

For `CN(C)CCCN1c2ccccc2CCc2ccccc21` [Imipramine, reference compound], the “decrease in immobility time” value is 75% with Male NMRI mice (20 mg/kg i.p. versus vehicle (71 sec), p=0.0004) and 20% with Male C57BL/6 mice (10 mg/kg i.p. versus vehicle (152 sec)). For the same molecule, the “Immobilization Time (sec); (mean ± SEM)” value was found to be 18.0 ± 5.8 s with Male NMRI mice (20 mpk i.p.) and 18 s in the data set on Male NMRI mice (20 mpk i.p., listed as imipramine). The molecule further registered an immobility time in the data set with Male C57BL/6 mice (10 mg/kg i.p., vehicle=152 sec) of 122 s.
